From US8288363B2, “Medicaments for anti-herpes virus treatments” (ASE & BIO, priority 2006, dated 2012)

What was measured:
[1] = test system: HSV-1, HSV-1R, HSV-2 and HSV-2R; test: Action as a function of the moment of use (time of addition); type: cell-based, herpes simplex virus; settings: for Inhibitory effect as a function of the moment of use: viral strains HSV-1R and HSV-2R, PS3 even when used 3 hours after infection, 72 hours
Protocol: To determine at what moment it is appropriate to use PS3, the procedure was as follows.
Vero cells were seeded at a cell density of 3.5·10^4 cells/well of a 96-well microtitre plate in 100 μl of MEM medium containing 8% FCS and they were then infected by being brought into contact with the various viral strains identified above for 1 hour at 4° C.
The infected cells were then washed with a saline buffer in order to remove the viral particles which had not be adsorbed.
The infected cells were then treated with PS3 or with the comparison product: • either at the moment of infection, • or 1, 2, 3 and 5 hours after infection.
In each case the microtitre plates were kept at 37° C. for 72 hours. The inhibitory effect of PS3 or of the comparison product, in this case acyclovir, was then determined for each viral strain.

[2] = test system: HSV-1, HSV-1R, HSV-2 and HSV-2R; test: Action on the viral adsorption, conclusion for the strains together; type: cell-based, herpes simplex virus
Protocol: To determine whether PS3 has an effect on the viral adsorption, the procedure was as follows.
Vero cells were seeded at a cell density of 3.5·10^4 cells/well of a 96-well microtitre plate in 100 μl of MEM medium containing 8% FCS 24 hours before the test. The viral suspensions of HSV-1, HSV-1R, HSV-2 and HSV-2R, defined by an MOI of 0.01 ID50/cell for a cell concentration of 350,000 cells/ml, were tested.
On the day of the test, the cells were subjected to three different treatments designated A, B and C.
According to treatment A, cells treated with 50 μl of PS3 or comparison product (acyclovir) of a given concentration were infected with 50 μl of one of the viral suspensions identified above for one hour at 4° C.
The infected cells were then washed with 100 μl of saline buffer in order to remove the PS3 or the reference product as well as the viral particles which had not been adsorbed by the cells.
After having filled each well with sufficient MEM medium containing 8% FCS to arrive at a volume of 200 μl, the cells were then placed in an oven at 37° C. for 72 hours. […]
For these 3 treatments, the inhibitory effect of PS3 and of the reference product (expressed in EC50) on the adsorption of the four abovementioned viral strains after 72 hours was evaluated by measurement of the EC50 values in accordance with the method described in Example 3.

HSV-2 = test: Anti-herpes activity, viability of infected vero cells (neutral red); type: cell-based, herpes simplex virus 2; settings: for EC50: MOI 0.01 ID50/cell
Protocol: (§1) This method is based on the principle that living cells absorb neutral red, which is a vital stain. The optical density of the medium was measured at the maximum absorption wavelength of neutral red, that is to say 540 nm, using a spectrophotometer (SpectraCount™, microplate photometer, Packard). The optical density at 540 nm is proportional to the number of living cells in an infected culture (McLaren et al., Antiviral Research, 1983; 3: 223-234 and Langlois et al., Standardization, 1986, 14: 201-211).
(§2) The effective concentration (EC 50%), that is to say the concentration of the sulphated polysaccharide which enables infection of 50% of the cells of a culture to be inhibited, was measured for each viral strain.
(§3) The determination of the EC50 was carried out in 96-well microtitre plates in accordance with the following protocol. Vero cells are seeded at a cell density of 3.5·10^4 cells/well in 100 μl of MEM medium containing 8% FCS. For each viral suspension defined by its MOI: • the negative control column was filled with 100 μl of MEM medium with 8% FCS, • the virus control column was filled with 50 μl of viral suspension having the required MOI and with 50 μl of MEM medium with 8% FCS, • the PS3 control column was filled with 50 μl of PS3 having the desired concentration range or with 50 μl of acyclovir (Zovirax 0.05-5 μg/ml • finally, all the other columns were filled successively with 50 μl of PS3 having the required concentration range or with 50 μl of acyclovir (Zovirax 0.05-5 μg/ml) and with 50 μl of the viral suspension having the desired MOI.
(§4) The EC50 corresponding to the concentration which enables the cytopathic effect of the virus to be reduced by 50% was calculated in accordance with the following formula: […]
(§5) The anti-herpes activity of PS3 was evaluated and compared on each viral suspension of HSV-1, HSV-1R, HSV-2 and HSV-2R defined by an MOI of 0.01 ID50/cell for a cell concentration of 350,000 cells/ml, after incubation times of 48 and 72 hours.
(§6) This series of experiments was carried out applying the protocol enabling the EC50 to be determined, as described in Example 3.
(§7) The therapeutic indices (TI) of PS3, as well as three other reference products, that is to say acyclovir, dextran sulphate and phycarine, were determined in parallel for each viral strain.
(§8) The therapeutic index (TI) represents the ratio between the maximum non-toxic dose (or a dose inducing a quantified toxicity) and the dose inducing a favourable pharmacological effect.

[3] = test system: acyclovir-resistant strain HSV-2R; test: as above; type: cell-based, herpes simplex virus 2; settings: for Anti-herpes activity (conclusion in words) / EC50: HSV-2R; for Anti-herpes activity (conclusion in words): 48 and 72 hours; for EC50: MOI 0.01 ID50/cell
Protocol: as §1, §2, §3, §4, §5, §6, §7, §8

[4] = strains HSV-1, HSV-2, HSV-1R, HSV-2R
[5] = non-resistant strains HSV-1 and HSV-2

Row | Molecule | Effect in relation to the moment of addition [1, 4] | Inhibitory effect as a function of the moment of use [1] | Effect on adsorption [2, 4] | Anti-herpes activity (conclusion in words) (HSV-2; HSV-2, 48 and 72 hours) | EC50 (HSV-2; HSV-2, after 48 hours of treatment) | EC50 (HSV-2; HSV-2, after 72 hours of treatment) | Therapeutic index HSV-2 (HSV-2; incubation time 48 hours) | Therapeutic index HSV-2 (HSV-2; incubation time 72 hours) | Anti-herpes activity (conclusion in words) [3] | EC50 ([3]; after 48 hours of treatment) | EC50 ([3]; after 72 hours of treatment) | Therapeutic index HSV-2R ([3]; incubation time 48 hours) | Therapeutic index HSV-2R ([3]; incubation time 72 hours) | Effect in relation to the moment of addition [1, 5] | Effect on adsorption [2, 5]
1 | sulphated laminarin [PS3] | not very effective | particularly effective | inhibitory effect on the 4 viral strains solely during treatment C and yes | more effective than acyclovir | less than 2 μg/ml | less than 5 μg/ml | >4,808 | >1,344 | more effective than acyclovir | less than 2 μg/ml | less than 5 μg/ml | >3,788 | >1,712 |  | 
2 | Nc1nc2c(ncn2COCCO)c(=O)[nH]1 [Acyclovir, acyclovir, reference compound] |  | no effect |  |  |  |  | >579 | >613 | not effective |  |  | 0 | 0 | effective up | no
